In ChEMBL document CHEMBL1124028, “Synthesis and antiviral activity of various 3'-azido analogues of pyrimidine deoxyribonucleosides against human immunodeficiency virus (HIV-1, HTLV-III/LAV)” (J Med Chem, 1988):

Tested on: Human immunodeficiency virus 1
Test: Inhibition of HIV-1 replication in human peripheral blood mononuclear cells.
Assay type: functional, organism-based

[N-]=[N+]=N[C@H]1C[C@H](n2cc(C(F)(F)F)c(=O)[nH]c2=O)O[C@@H]1CO
EC50: > 100 µM

[N-]=[N+]=N[C@H]1C[C@H](n2cc(Br)c(=O)[nH]c2=O)O[C@@H]1CO
EC50: 1 µM

Cc1cn([C@H]2C[C@H](N=[N+]=[N-])[C@@H](CO)O2)c(=O)nc1N
EC50: 5.1 µM

[N-]=[N+]=N[C@H]1C[C@H](n2cc(F)c(N)nc2=O)O[C@@H]1CO
EC50: 1 µM

[N-]=[N+]=N[C@H]1C[C@H](n2ccc(N)nc2=O)O[C@@H]1CO
EC50: 1.2 µM

[N-]=[N+]=N[C@H]1C[C@H](n2cc(F)c(=O)[nH]c2=O)O[C@@H]1CO
EC50: 4.8 µM

[N-]=[N+]=N[C@@H]1CC(n2cc(I)c(=O)[nH]c2=O)O[C@@H]1CO (some centres not stated)
EC50: 1.1 µM

COc1cn([C@H]2C[C@H](N=[N+]=[N-])[C@@H](CO)O2)c(=O)[nH]c1=O
EC50: 70 µM

CSc1cn([C@H]2C[C@H](N=[N+]=[N-])[C@@H](CO)O2)c(=O)[nH]c1=O
EC50: > 100 µM

[N-]=[N+]=N[C@H]1C[C@H](n2cc(O)c(=O)[nH]c2=O)O[C@@H]1CO
EC50: ~10 µM

Cc1nn([C@H]2C[C@H](N=[N+]=[N-])[C@@H](CO)O2)c(=O)[nH]c1=O
EC50: > 100 µM

Cc1cn([C@H]2C[C@H](N=[N+]=[N-])[C@@H](CO)O2)c(=O)n(/C=C/C=O)c1=O
EC50: 0.01 µM

N#CSc1cn([C@H]2C[C@H](N=[N+]=[N-])[C@@H](CO)O2)c(=O)[nH]c1=O
EC50: 5.1 µM

N#CCOc1cn([C@H]2C[C@H](N=[N+]=[N-])[C@@H](CO)O2)c(=O)[nH]c1=O
EC50: 16 µM

C=CCOc1cn([C@H]2C[C@H](N=[N+]=[N-])[C@@H](CO)O2)c(=O)[nH]c1=O
EC50: > 100 µM

C#CCOc1cn([C@H]2C[C@H](N=[N+]=[N-])[C@@H](CO)O2)c(=O)[nH]c1=O
EC50: 38 µM

CCOc1cn([C@H]2C[C@H](N=[N+]=[N-])[C@@H](CO)O2)c(=O)[nH]c1=O
EC50: 54 µM

[N-]=[N+]=N[C@H]1C[C@H](n2cc(N)c(=O)[nH]c2=O)O[C@@H]1CO
EC50: 6.2 µM

CNc1cn([C@H]2C[C@H](N=[N+]=[N-])[C@@H](CO)O2)c(=O)[nH]c1=O
EC50: > 100 µM

CN(C)c1cn([C@H]2C[C@H](N=[N+]=[N-])[C@@H](CO)O2)c(=O)[nH]c1=O
EC50: > 100 µM

[N-]=[N+]=N[C@H]1C[C@H](n2ccc(=O)[nH]c2=O)O[C@@H]1CO [NAVURIDINE]
EC50: 0.2 µM

Cc1cn([C@H]2C[C@H](N=[N+]=[N-])[C@@H](CO)O2)c(=O)[nH]c1=O [ZIDOVUDINE]
EC50: 0.002 µM
